Measurements published in PubChem BioAssay AID1963848 (Molecular Pharmacology Branch, DTP, NCI, 2024).
Several values for one entry are separate records, joined by “and”; a condition that tells them apart may be missing. Equal values may be shown once.

System: 379773-124-R-J2-PDC spheroid viability
Test: Anticancer human tumor 379773-124-R-J2-PDC patient-derived endometrial carcinoma cell line growth inhibition [POLQ]
Conditions: spheroids with HUVEC and MSC; for viability, T/C: stronger effect = lower value
Description: Multicellular complex tumor spheroid response to Polymerase (POL) inhibitors (novobiocin, ART-558, RP6685) in combination with a variety of drugs and investigational agents in selected tumor cell lines
The POL inhibitors (novobiocin, ART-558, and RP6685) were evaluated both individually and in combination with standard of care and investigational anticancer small molecules within a complex spheroid model of solid tumors. . Complex spheroids include a stromal component modeled by human endothelial cells (HUVEC) and fibroblasts modeled by human mesenchymal stem cells (MSCs). The concentration ranges selected for each drug and investigational agent were based upon clinically achievable concentrations if the clinical Cmax of the agent was known.
Compounds. The drugs and investigational agents: novobiocin (NSC847541), ART-558 (NSC835418), RP-6685 (NSC848927), peposertib (NSC802822), ceralasertib (NSC780249), elimusertib (NSC800525), camonsertib (NSC841442), AZD-1390 (NSC803789), olaparib (NSC753686), talazoparib (NSC767125), rucaparib (NSC756644), sotorasib (NSC818433), MRTX-1133 (NSC836407), SN-38 (NSC673596), topotecan (NSC609699), epotoside (NSC141540), doxorubicin (NSC123127), gemcitabine (NSC613327), 5-fluorouracil (NSC19893), paclitaxel (NSC125973), vemurafenib (NSC761431), MSA-2 (NSC828583), SN-011 (NSC837082), adavosertib (NSC754352), prexasertib (NSC758257), carboplatin (NSC241240) and oxaliplatin (NSC266046), were obtained from the National Cancer Institute (NCI) Developmental Therapeutics Program Chemical Repository (21). The FDA-approved anticancer drug set is available from the Developmental Therapeutics Program at https://dtp.cancer.gov/organization/dscb/obtaining/. […] The stock solutions were prepared in dimethyl sulfoxide (DMSO, Sigma-Aldrich, St. Louis, MO, cat. D2650), except for the platinum compounds which were prepared in saline (Quality Biological, Gaithersburg, MD, cat. 114-055-101), at 800-fold the tested concentration and stored at -70 degrees C prior to their use. All drugs and investigational agents were tested over a range starting from a high concentration at or near the clinical Cmax and decreasing in half-log increments. If the clinical Cmax for an agent had not been determined, the highest concentration tested was 10 microM, except for SN-38, which was tested at a high concentration of 1 microM.
Cell Culture. All cells were maintained in an incubator at 37 degrees C and 5% CO2 with 95% humidity. The PDC lines were cultured according to standard operating procedures established by the NCI PDMR (https://pdmr.cancer.gov). Table 3 of the manuscript, lists the cell lines along with the number of the three cell types plated to form the mct-spheroids and media for tumor cell growth. After thawing, all PDC lines, except 997537-175-T-J1-PDC and 415267-285-R-J2-PDC, were cultured in Matrigel-coated flasks prepared with a working solution of 1X Ham's F-12 nutrient mix, without supplementation (Thermo Fisher Scientific, cat. 11765054), 100 U/mL penicillin-streptomycin (Thermo Fisher Scientific, cat. 15140122), and 2.5% Matrigel (Corning Inc., Corning, NY, cat. 354248) for the first three passages. The two PDC lines 997537-175-T-J1-PDC and 415267-285-R-J2-PDC were cultured on uncoated flasks. The 857933-349-R-J2-PDC line was cultured in 6C/Colon 1B media containing advanced DMEM/F-12 (Thermo Fisher Scientific, cat. 12634028), 10 mM HEPES (Thermo Fisher Scientific, cat. 15630080), 1X GlutaMAX supplement (Thermo Fisher Scientific, cat. 35050061), 0.1 mg/mL primocin (InvivoGen, San Diego, CA, cat. ant-pm-2), 10% defined fetal bovine serum, heat inactivated (HyClone Laboratories Inc., Logan, UT, cat. SH30070.03HI), 50% L-WRN conditioned media (ATCC, cat. CRL-3276), 1.25 mM N-Acetyl-L-cysteine (Sigma-Aldrich, cat. A9165), 10 mM nicotinamide (Sigma-Aldrich, cat. N0636), 1X B-27 supplement (Thermo Fisher Scientific, cat. 17504044), 1X N-2 supplement (Thermo Fisher Scientific, cat. […]
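Also: spheroids exposed to drugs for seven days before readout.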
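For viability, T/C in this document: percent viability relative to DMSO vehicle control taken as 100%.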

Row | Structure (SMILES) | viability, T/C (compound 0.0316 µM) | viability, T/C (compound 0.1 µM) | viability, T/C (compound 0.316 µM) | viability, T/C (compound 1 µM) | viability, T/C (compound 3.16 µM) | viability, T/C (compound 10 µM) | IC50 (compound alone, run of 10/31/2023) [nM] | IC50 (compound alone, run of 11/06/2023) [nM] | IC50 (curve of compound) | viability, T/C (compound 0.00949 µM) | viability, T/C (compound 0.03 µM) | viability, T/C (compound 0.0949 µM) | viability, T/C (compound 0.3 µM) | viability, T/C (compound 0.949 µM) | viability, T/C (compound 3 µM) | viability, T/C (compound 0.000316 µM) | viability, T/C (compound 0.001 µM) | viability, T/C (compound 0.00316 µM) | viability, T/C (compound 0.01 µM)
1 | Cc1cccc(N(C)C(=O)C2C(O)CCN2c2nc(C)cc(C(F)(F)F)c2C#N)c1 (stereo not drawn) | 89.8% [middle of 13 runs] | 90.7% [middle of 13 runs] | 88.2% [middle of 13 runs] | 88.2% [middle of 13 runs] | 89% [middle of 13 runs] | 92.7% [middle of 13 runs] | > 10000 | > 10000 |  |  |  |  |  |  |  |  |  |  | 
2 | CCc1cc2c(N3CCc4c(cc(Cn5ccnc5)cc4-c4cn(C)nc4C(F)(F)F)C3=O)ccnc2c(OC)n1 | 72.1% and 87.3% and 77.8% | 65% and 74.8% and 74.2% | 53.4% and 64% and 69.2% | 54.6% and 64.1% and 67.8% | 63.3% and 59.9% and 57.4% | 37.2% and 57.8% and 53.6% |  |  | 3400 nM and > 10000 nM |  |  |  |  |  |  |  |  |  | 
3 | CC(=O)O[C@H]1C(=O)[C@@]2(C)[C@H]([C@H](OC(=O)c3ccccc3)[C@]3(O)C[C@H](OC(=O)[C@H](O)[C@@H](NC(=O)c4ccccc4)c4ccccc4)C(C)=C1C3(C)C)[C@]1(OC(C)=O)CO[C@@H]1C[C@@H]2O |  |  |  |  |  |  |  |  | < 9.49 nM | 21.2% and 20.1% and 16.9% | 7.51% and 10.1% and 8.5% | 14.2% and 12.2% and 9.35% | 10.6% and 11.8% and 8.52% | 9.35% and 10.1% and 7.28% | 7.9% and 9.86% and 6.94% |  |  |  | 
4 | CC[C@@]1(O)C(=O)OCc2c1cc1n(c2=O)Cc2cc3c(CN(C)C)c(O)ccc3nc2-1 | 45.8% and 43% and 45.2% | 14.7% and 26.1% and 10.6% |  |  |  |  |  |  | 27.2 nM and 26.3 nM and 27.1 nM |  |  |  |  |  |  | 86.7% and 95.5% and 87.2% | 82.9% and 87.3% and 91.6% | 97.8% and 92.2% and 75.9% | 78.5% and 86.5% and 81.9%
5 | Cn1ncnc1[C@H]1c2n[nH]c(=O)c3cc(F)cc(c23)N[C@@H]1c1ccc(F)cc1 | 69.2% and 76.9% and 80.9% | 51.7% and 51.5% and 63.7% |  |  |  |  |  |  | > 100 nM |  |  |  |  |  |  | 87.2% and 92.3% and 89.2% | 84% and 90% and 91.3% | 95.8% and 99.7% and 71.6% | 80.2% and 93.1% and 88.5%
6 | CNCc1ccc(-c2[nH]c3cc(F)cc4c3c2CCNC4=O)cc1 | 79.5% and 90.1% and 98.3% | 85.4% and 95.9% and 92.6% | 76.9% and 93.3% and 85.4% | 77.7% and 96% and 82.6% | 71.9% and 100% and 80.1% | 56.2% and 82.1% and 66.5% |  |  | > 10000 nM |  |  |  |  |  |  |  |  |  | 
